Assays:
[1] = Stability in aqueous solution by analytical RP-HPLC; type: physicochemical
Method: The stability of the compounds in aqueous solution was monitored over several hours using analytical RP-HPLC. […] Thus, the hydrolysis can be clearly attributed to the maleimide moiety.
(§1) RP-HPLC stability and binding studies
(§2) To determine the stability, especially of the maleimide-function, 0.5 mM solutions of the complexes were prepared in triple distilled water and measured repeatedly over several hours. For determination of the binding rate towards human serum albumin (HSA), freshly prepared 1 mM aqueous solutions of a compound and HSA were mixed 1:1 and also measured repeatedly over several hours. All studies were carried out using a reversed-phase Waters XBridge C18 column on a Dionex Summit System. Milli-Q water, containing 0.1% formic acid, and methanol were used as eluents and a standard gradient from 5–95% methanol in 20 minutes was chosen. The autosampler, where the samples were incubated, was temperature controlled at 20°C and the column at 25°C. The loss of the complexes was monitored via UV-VIS detector at 225 nm and evaluated by the decrease of the compound […]
(§3) For sample preparation compounds 7– 14 were incubated separately in FCS. […] The samples were then stored in the autosampler at 37°C for 21 h and analyzed

[2] = target: T1, human serum albumin (HSA) (Homo sapiens, UniProt P02768); experiment: Albumin-binding rate by RP-HPLC (decrease of unbound drug peak area); settings: 1 eq. of HSA used
T1 construct: purchased Sigma Aldrich
Method: Next, the binding of the maleimide-functionalized complexes to the thiol group of human serum albumin (HSA) was investigated. Therefore, compounds 7–8 and 11–12 were incubated with HSA and the decrease of the peak area of the unbound drug was monitored (Fig. 2B, Table S19 ^†).
as §1, §2, §3

[3] = target: T2, albumin fraction of fetal calf serum (Bos taurus, UniProt P02769); experiment: Binding studies in fetal calf serum by SEC-ICP-MS; type: in vitro ADME; settings: 37 °C
T2 construct: from tissue; host or cells: fetal calf serum (whole serum)
Method: To ascertain the actual binding target, the binding rate and the stability of the formed species under biological conditions, the compounds were incubated with fetal calf serum at 37 °C and sulfur- and platinum-containing (macro)molecules were measured with size exclusion chromatography inductively coupled plasma mass spectrometry (SEC-ICP-MS) over 21 h. Already at the first scan (∼5–10 min after incubation) ∼50% of the maleimide-containing compounds 7–8 and 11–12 were bound to the albumin fraction at 7.6 min (see Table S11 ^† for the corresponding size ladder). At the next time point after 140 min, in all cases, >80% of the drug was bound to albumin. […] Thus, the fast as well as specific binding to serum albumin was verified. […]
To determine the stability, especially of the maleimide-function, 0.5 mM solutions of the complexes were prepared in triple distilled water and measured repeatedly over several hours. For determination of the binding rate towards human serum albumin (HSA), freshly prepared 1 mM aqueous solutions of a compound and HSA were mixed 1:1 and also measured repeatedly over several hours. […] The loss of the complexes was monitored via UV-VIS detector at 225 nm and evaluated by the decrease of the compound […]
For sample preparation compounds 7– 14 were incubated separately in FCS. […] The samples were then stored in the autosampler at 37°C for 21 h and analyzed […]

[4] = Reduction with ascorbic acid monitored by RP-HPLC and 1H-NMR; type: physicochemical; settings: 1 mM complex, 10 equivalents ascorbic acid, phosphate buffer pH = 7.4
Method: As one explanation of the observed differences between the compounds might be altered reducibility, we investigated the reduction rate in the presence of ascorbic acid in phosphate-buffered solution at pH = 7.4 using NMR spectroscopy and HPLC measurements. To reduce the number of additional signals from hydrolyzed maleimide species in the spectra, only the succinimide-functionalized compounds 9–10 and 13–14 were evaluated in these experiments (Fig. 7 and S6 ^†). For both NMR and HPLC measurements, the same complex concentrations (1 mM) and 10 equivalents ascorbic acid were used. […] Overall, there is a strong correlation between the reduction data and the in vivo activity. As such, the fast reduction of the cisplatin derivatives correlates with the low in vivo activity of 8 and relatively low plasma levels after 24 h. […]
1 mM solutions of the succinimide derivatives 9– 10 and 13–14 in 100 mM phosphate buffer (pH=7.4) were freshly prepared, mixed with 10 mM solutions of ascorbic acid in 100 mM phosphate buffer (pH=7.4) and measured by RP-HPLC every hour for up to 24 h. […] The reduction of the compound was monitored via UV-VIS detector at 225 nm and evaluated by the decrease of the initial compound peak area. […]

[5] = Serum platinum levels 24 h after single treatment (SEC-ICP-MS and FI-ICP-MS); type: in vivo, BALB/c mice
Description: It is well accepted that albumin targeting distinctly impacts on the plasma half-life time as well as tissue distribution.[36] Especially, the enhanced accumulation due to the EPR effect makes this form of tumor-targeting very interesting for the development of novel cancer therapeutics.[13] As our novel compounds have a double prodrug nature (albumin-binding and the need of activation by reduction), we were interested in the drug tissue distribution after treatment. To this end, male CT-26-bearing BALB/c mice were treated once with our compounds followed by sample collection 24 h later. […] In accordance to many other non-targeted drugs,[37]–[40] for both platinum(II) drugs the intratumoral drug levels were distinctly lower than in the liver and kidney (which usually have very high drug levels due to their important function in metabolism and excretion).
Mice were treated once i.v. with 9 mg kg^–1 oxaliplatin and the equimolar concentrations in the case of 11 and 12 as well as 3 mg kg^–1 cisplatin and an equimolar dose in the case of 8. After 24 h, animals were anesthetized, sacrificed by heart puncture and tumor, liver, kidney tissue as well as serum were collected. Each experimental group contained four animals. (A) Organ platinum-distribution measured by ICP-MS. Data are expressed as mean ± standard deviation. (B) Platinum-SEC-ICP-MS measurements of serum samples (C) serum platinum levels measured by FI-ICP-MS. Data are expressed as mean ± standard deviation.
Table S10 : Column recovery.
Drug Conc. (µM) SD Column SD
A protein/amino acid mix was prepared to assess the separation performance of the applied SEC-HPLC setup. The mixture contained HSA, myoglobin, GSSG, and methionine. It has to be mentioned that HSA is forming dimers over time. However, the separation of the monomer and the dimer of HSA cannot be resolved with this chromatographic column.
Table S11 : Resulting size ladder.
SEC-ICP-MS measurements of in vivo serum samples
The ICP-QMS iCAP Thermo Scientific (Bremen, Germany) was used. Oxygen (purity 4.5, Linde Gas GmbH, Vienna, Austria) was used as reaction gas. The ICP-MS operation parameters are […]
Table S12 : ICP-MS operation parameters.
Nebulizer gas flow: 1.01 L/min
Aux. gas flow: 0.80 L/min
Plasma gas flow: 14 L/min
Reaction gas (oxygen) flow: 0.370 mL/min
As HPLC system a Thermo Scientific Transcend HPLC system (San Jose, CA, USA) was coupled to the ICP-QMS iCAP Thermo Scientific. Qtegra Intelligent Scientific Data Solution (version 2.4.1800.33) was employed for the data treatment. HPLC chromatographic conditions are […]
Table S13 : Chromatographic conditions.
HPLC column: BioBasic SEC-60 A, 4.6x250 mm, 5µm.
Eluent: 50 mM CH3COONH4, pH = 6.0.
Column Temperature: Room temperature
Autosampler Temperature: 37°C […]

T2 sequence (P02769 25-607): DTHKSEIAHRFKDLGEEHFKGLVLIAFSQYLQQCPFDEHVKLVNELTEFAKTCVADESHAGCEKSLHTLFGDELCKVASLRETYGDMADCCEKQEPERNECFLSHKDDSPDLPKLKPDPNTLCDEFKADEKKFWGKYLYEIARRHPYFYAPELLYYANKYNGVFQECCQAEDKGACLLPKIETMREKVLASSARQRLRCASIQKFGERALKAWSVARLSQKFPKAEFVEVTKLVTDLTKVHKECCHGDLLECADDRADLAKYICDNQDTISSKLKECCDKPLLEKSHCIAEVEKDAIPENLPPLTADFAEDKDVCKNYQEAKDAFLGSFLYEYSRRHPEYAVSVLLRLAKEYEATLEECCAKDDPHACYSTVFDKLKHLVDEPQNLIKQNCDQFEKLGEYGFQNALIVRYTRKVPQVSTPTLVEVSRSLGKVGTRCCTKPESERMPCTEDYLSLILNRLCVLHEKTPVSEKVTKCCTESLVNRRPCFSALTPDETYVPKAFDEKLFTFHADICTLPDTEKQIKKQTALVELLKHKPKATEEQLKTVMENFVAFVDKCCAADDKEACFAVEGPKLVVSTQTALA
T1 sequence (P02768 25-609): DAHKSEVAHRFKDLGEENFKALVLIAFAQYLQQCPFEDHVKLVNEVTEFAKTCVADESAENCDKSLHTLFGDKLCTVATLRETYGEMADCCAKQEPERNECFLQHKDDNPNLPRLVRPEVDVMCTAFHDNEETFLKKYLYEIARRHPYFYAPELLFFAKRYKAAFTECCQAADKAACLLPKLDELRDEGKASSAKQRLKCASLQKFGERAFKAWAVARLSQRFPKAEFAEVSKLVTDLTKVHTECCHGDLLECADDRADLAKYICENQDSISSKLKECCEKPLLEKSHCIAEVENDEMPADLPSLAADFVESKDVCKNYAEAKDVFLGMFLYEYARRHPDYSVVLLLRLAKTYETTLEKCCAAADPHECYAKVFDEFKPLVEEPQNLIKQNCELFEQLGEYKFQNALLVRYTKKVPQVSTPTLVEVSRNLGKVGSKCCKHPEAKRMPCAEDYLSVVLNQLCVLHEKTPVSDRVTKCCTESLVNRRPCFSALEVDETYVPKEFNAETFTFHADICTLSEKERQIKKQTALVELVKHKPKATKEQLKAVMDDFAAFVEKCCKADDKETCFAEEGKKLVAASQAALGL

## C[O][Pt]([NH2])([NH2])([Cl])([Cl])[O]C(=O)NCCN1C(=O)C=CC1=O [Compound 7, (OC-6-44)-Diamminedichloridomethoxido[2-(2,5-dioxo-2,5-dihydro-1H-pyrrol-1-yl)ethylcarbamato]platinum(IV)]
[1]; aqueous solution, 20°C
  hydrolysis in aqueous solution: less than 1 % h^–1
[2]
  Albumin-binding half-life λ1/2: 5.1 h
[3]; 100 µM, first scan (∼5–10 min after incubation)
  drug bound to the albumin fraction: ~50%

## CC(=O)[O][Pt]([NH2])([NH2])([Cl])([Cl])[O]C(=O)NCCN1C(=O)CCC1=O [Compound 10]
[1]; over a period of 24 hours
  changes in aqueous solution: no changes
[3]; during 21 h
  protein binding ability: negligible protein binding ability
[4]
  reduction by ascorbic acid, cisplatin-derived vs oxaliplatin-based: reduced much faster
  stability towards reduction, acetato vs methoxido ligand: more stable

## N.N.[Cl][Pt][Cl] [cisplatin]
[5]; Mouse #1, serum 24 h after single i.v. treatment
  Pt conc. in serum: 48 µg/L
[5]; Mouse #2, serum 24 h after single i.v. treatment
  Pt conc. in serum: 46 µg/L
[5]; Mouse #3, serum 24 h after single i.v. treatment
  Pt conc. in serum: 43 µg/L
[5]; Mouse #4, serum 24 h after single i.v. treatment
  Pt conc. in serum: 44 µg/L

From publication PMC5409245, “An albumin-based tumor-targeted oxaliplatin prodrug with distinctly improved anticancer activity in vivo” (Chemical Science, 2016)
